According to patent US7611863B2, “Selective staining of biomembranes using voltage-sensitive dyes” (Max-Planck-Gesellschaft zur Foerderung der Wissenschaften …, priority 2004, dated 2009):
Blank lines part the entries; values can stand above or below the molecule they belong to.

How the values were obtained:
[1] = system: Madine Darby Canine Kidney (MDCK) cells; experiment: Enzyme induced staining of transiently transfected MDCK cells; format: cell-based
Description: FIG. 19. Genetically Targeted Staining of MDCK cells with Di-10P-ASPBS and Di-12P-ASPBS. (A) Cells were cotransfected with the membrane-bound phosphatase construct termed ArtPlasMA AP and H2B-GFP, a nucleus-localized transfection marker. Brightfield image and fluorescence images before (−1 sec) and after addition of 200 nM Di-10P-ASPBS. (B) Analogous to row A, but using 200 nM Di-12P-ASPBS. (C) Control experiment. Cells were transfected only with H2B-GFP and incubated with 200 nM Di-12P-ASPBS. Brightfield image and fluorescence images before (−1 sec) and after addition of dye (8 min). (D) Control experiment. Cells were cotransfected with the membrane-bound phosphatase construct termed ArtPlasMA AP and H2B-GFP and incubated with the dye Di-10A-ASPBS. Brightfield image and fluorescence image before (−1 sec) and after addition of dye (20 sec).
Two control experiments were performed: In the first control, cells were transfected only with the transfection marker H2B-GFP. […] In addition, no difference in staining intensity between transfected and untransfected cells can be discerned (FIG. 19C). In the second control experiment, cells were cotransfected with the phosphatase construct and the transfection marker.

[2] = system: HEK 293 cells expressing fusion protein of plasma membrane anchor and PLAP; experiment: Staining of HEK 293 cells through overexpressed membrane-bound phosphatase; format: cell-based
Source text: FIG. 13A to C: Staining of transfected HEK 293 cells with a voltage sensitive dye by activation of binding through an overexpressed, membrane-bound phosphatase. HEK 293 cells were cotransfected with a vector coding for GFP and a vector coding for a fusion protein of a plasma membrane anchor and phosphatase from the human placenta. A. fluorescence image showing the GFP fluoresence of a transfected cell (excitation filter 450/50 nm, emission filter 510 nm longpass; dichroic mirror: 505 nm). B. The voltage sensitive fluorescent dye Di-8-phosphato-ASPBS (cf. FIG. 11, bottom) was added to the incubation medium. […] C. […] The images shown are optimized for contrast and intensity.
(§1) FIG. 16. Genetically Targeted Staining of HEK293 cells with 1 mM Di-10P-ASPBS. A mixture of stable clones either expressing the membrane-bound phosphatase construct or cytosolic GFP were cultured on the same dish. (A) From left to right: (i) Brightfield image of cells. (ii) Fluorescence image of cells showing cells expressing cytosolic GFP (excitation filter 450/50 nm, emission filter 510 nm, dichroic mirror 505 nm). (iii) Cells expressing phosphatase as obtained by subtraction of GFP expressing cells from image i. (iv) Fluorescence image of cells with filters exc. 535/50 nm, em. 610/75 nm; dichroic mirror 535 nm. The image is normalized to the same level as in row B. (v) autoleveled image iv, showing fluorescence crosstalk of GFP. (B) Enzyme induced staining of cells as measured with filter set exc. 535/50 nm, em. 610/75 nm; dichroic mirror 535 nm. The membrane fluorescence increases over time. (C). Inverted and contrast-enhanced fluorescence images corresponding to row B. (D) Difference images. The image A/iv was subtracted from the images in row B. The resulting images were inverted and contrast was enhanced.
as §1, with “17.” for “16.”, “200 nM Di-12P-ASPBS.” for “1 mM Di-10P-ASPBS.”, “difference” for “and contrast-enhanced fluorescence images corresponding to row B. (D) Difference”, “enhanced. (D) Contrast enhanced images of row C.” for “enhanced.”
Enzyme induced staining. The dye precursors Di-10P-ASPBS and Di-12P-ASPBS were used to effect enzyme induced staining on cells. To test whether the staining is selective, a mixture of two cell populations was cultured in the same dish. One of these stably expressed the phosphatase construct, while the other was stably expressing GFP as a negative marker.

[3] = Dye-lipid binding by fluorescence lipid titration; format: physicochemical; conditions: for binding constant to lipid membranes: fluorescence lipid titration, Example 2; for average binding constant K to lipid membrane: POPC vesicles, Tris-NaCl buffer pH 8.1, 25° C., dye 0.5 μM
Description: Dye-lipid binding. The binding of the dyes to lipid membranes was determined by fluorescence lipid titration^21 with large unilamellar vesicles (LUVs) made of 1-palmitoyl-2-oleoyl-phosphatidylcholine (POPC). The purity of the lipids was checked by 2-dimensional TLC^22. The vesicles were made by extrusion^23 in Tris-NaCl buffer (20 mM Tris, 100 mM NaCl, pH 8.1), using an extrusion apparatus and polycarbonate filters with 100 nm pore size (both Avestin Europe, Mannheim, Germany). Vesicle size was determined by quasielastic light scattering using an argon ion laser (Spectra-Physics, Darmstadt, Germany), a photomultiplier (Brookhaven Instruments, Vienna, Austria) and a correlator (ALV-5000, Langen, Germany). The lipid concentration was determined by a chromogenic enzyme assay (Biomerieux, Marcy I'Etoile, France). The standard deviation of three concentration measurements for every vesicle preparation was always below 4%. Vesicles were stored under argon at 4° C. in 15 ml Falcon Centrifuge Tubes (BD Labware Europe, Le Pont de Claix, France) and used within three days.
To measure dye binding constants, we prepared 1 mM solutions of the dyes 1-3 by ultrasonication in Ethanol (1) or Tris-NaCl buffer (2,3). […] In the same buffer, suspensions of POPC vesicles with concentrations ranging from 100 nM to 10 mM were prepared by dilution of stock solutions. Dye and lipid were pre-thermostatted to 25° C. […] The fluorescence emission recorded at 600 nm with excitation at 488 nm was used for the evaluation of the partition coefficients.
Dye binding to lipid. When styryl hemicyanines bind to lipid bilayers, their quantum yield of fluorescence is enhanced. […] We take advantage of that effect to examine the binding of Di-4-ASPP phosphate and Di-4-ASPP alcohol to lipid membranes by fluorescence titration^21. For comparison Di-4-ASPBS was also included in the investigation.
Dispersions of large lipid vesicles (Ø≈100 nm) were made from palmitoyl-oleoyl-phosphatidylcholine (POPC) with lipid concentrations ranging over five orders of magnitude. […] The fluorescence intensity was enhanced with increasing concentration of lipid for all three dyes. The enhancement was shifted to higher lipid concentrations in the order Di-4-ASPP alcohol, Di-4-ASPBS and Di-4-ASPP phosphate.
Binding. The dyes Di-10-phosphato-ASPBS (Di-10P-ASPBS) and Di-12-phosphato-ASPBS (Di-12P-ASPBS) as well as the corresponding products after enzymatic hydrolysis Di-10-hydroxy-ASPBS (Di-10A-ASPBS) and Di-12-hydroxy-ASPBS (Di-12A-ASPBS) were synthesized by organic chemical methods. Their binding to lipid membranes was tested by fluorescence lipid titration (cf. page 15, section dye binding to lipid). The binding constants amounted to 27 M^−1 (Di-10P-ASPBS), 250,000 M^−1 (Di-10A-ASPBS), 2100 M^−1 (Di-12P-ASPBS) and 3,000,000 M^−1 (Di-12P-ASPBS) (FIGS. 14 and 15 (center and right hand side)). The difference in binding constants between dye alcohol and dye phosphates (or dye precursors) therefore amounted to a factor of 10,000 for the pair Di-10P-ASPBS/Di-10A-ASPBS and to a factor of 1000 for the pair Di-12P-ASPBS/Di-12A-ASPBS. The binding curve for the more lipophilic pair Di-12P-ASPBS/Di-12A-ASPBS is shifted to […] lipid concentrations.

[4] = system: HEK 293 cells; experiment: Staining of HEK 293 cells by activation of binding through soluble phosphatase; format: cell-based
Description: FIG. 12A to F: Staining of HEK 293 cells with a voltage sensitive dye by activation of binding through soluble phosphatase added to the incubation medium. HEK 293 cells (A, brightfield image) were incubated with the voltage sensitive fluorescent dye Di-8-phosphato-ASPBS (cf. FIG. 11, bottom) at a concentration of 19.6 μM. […] The images shown are optimized for contrast and intensity.

[5] = upon transfer from water to lecithin membranes; cited from earlier work
[6] = cells cotransfected with ArtPlasMA AP and H2B-GFP, 200 nM

Molecule: Di-8-phosphato-ASPBS
- permeation of the cell plasma membrane ([4]; 19.6 μM, 30 minutes, cell interior stained only slightly): permeates the cell plasma membrane very slowly
- membrane fluorescence before enzyme addition ([4]; 19.6 μM, after 30 minutes, no enzyme): no membrane fluorescence could be detected
- membrane fluorescence after addition of soluble PLAP ([4]; PLAP 0.18 DEA Units/ml, 15 sec to 6 min): membrane fluorescence was activated and increased over time
- membrane fluorescence directly after dye addition ([2]; transfected HEK 293 cell): no membrane fluorescence was visible
- membrane staining after 5 min of incubation ([2]; transfected HEK 293 cell): the membrane of the transfected cell was clearly stained
- membrane fluorescence of untransfected control cells ([2]; untransfected HEK 293 cells incubated with the dye): did not show any membrane fluorescence

Molecule: CCCCN(CCCC)c1ccc(/C=C/c2cc[n+](CCCO)cc2)cc1.[Br-] [Di-4-ASPP alcohol, 1-[γ-hydroxypropyl]-trans-4-[p-(di-n-butylamino)styryl]-pyridinium bromide]
- average binding constant K to lipid membrane [3]: 17920 ± 360 M⁻¹

Molecule: CCCCN(CCCC)c1ccc(C=Cc2cc[n+](CCCCS(=O)(=O)[O-])cc2)cc1 [Di-4-ASPBS, Di-4-ASP butylsulfonate, reference compound]
- increase in fluorescence quantum yield [5]: 36 fold
- average binding constant K to lipid membrane [3]: 7500 ± 440 M⁻¹
- increment of the binding energy Δ(ΔG) relative to the alcohol ([3]; −RT ln(K/KA)): 0.526 kcal/mol

Now from value to molecule, other results behind:

- binding constant to lipid membranes [3]: 27 M⁻¹
- difference in binding constants between dye alcohol and dye phosphate (precursor) ([3]; pair precursor/product dye): 10,000 factor
Molecule: Di-10-phosphato-ASPBS [Di-10P-ASPBS]
- localization of staining at beginning of experiment [1, 6]: staining is localized to the transfected cells at the beginning of the experiment
- localization of staining over several minutes [1, 6]: the produced dye diffuses to the surrounding, nontransfected cells
- enzyme induced membrane staining in mixed cell populations ([2]; phosphatase clones and GFP clones in same dish, 1 mM Di-10P-ASPBS, 200 nM Di-12P-ASPBS): allowed enzyme induced membrane staining

- binding constant to lipid membranes [3]: 250,000 M^−1
Molecule: Di-10-hydroxy-ASPBS [Di-10A-ASPBS]
- staining by product dye, transfected versus untransfected cells ([1]; cotransfected with phosphatase construct and H2B-GFP): equally and unselectively stained
